This note sets out measurements from ChEMBL document CHEMBL3046356, “Synthesis and anticholinesterase activity of fumaramide derivatives” (Med Chem Res, 2013).

Experiment [1] concerns the target Acetylcholinesterase (Electrophorus electricus) (UniProt O42275). The experiment can be described thus: Inhibition of Electrophorus electricus (electric eel) AChE using acetylthiocholine iodide as substrate at 10 mg/ml by TLC-B assay.
Experiment [2] deals with Acetylcholinesterase (Electrophorus electricus, UniProt O42275). Briefly: Inhibition of Electrophorus electricus (electric eel) AChE using acetylthiocholine iodide as substrate preincubated with enzyme for 15 min prior to substrate addition measured every 45 s by colorimetric Ellman's method.
Experiment [3] addresses Cholinesterase (Equus caballus, UniProt P81908). The experiment can be described thus: Inhibition of BCHE in Equus caballus (horse) serum using butyrylthiocholine iodide as substrate preincubated with enzyme for 15 min prior to substrate addition measured every 45 s by colorimetric Ellman's method.
In experiment [4] the target is Cholinesterase (Equus caballus) (UniProt P81908). Briefly: Non-competitive inhibition of BCHE in Equus caballus (horse) serum assessed as decrease in Vmax with unchanged Km using butyrylthiocholine iodide as substrate by Lineweaver-burk plot analysis.
Experiment [5] concerns the target Acetylcholinesterase (Electrophorus electricus) (UniProt O42275). Briefly: Non-competitive inhibition of Electrophorus electricus (electric eel) AChE assessed as decrease in Vmax with unchanged Km using acetylthiocholine iodide as substrate by Lineweaver-burk plot analysis.

SMILES strings stand for the structures. The source made the active and inactive calls. The rule behind the calls is not given here.

Sequence of Acetylcholinesterase (O42275 whole entry): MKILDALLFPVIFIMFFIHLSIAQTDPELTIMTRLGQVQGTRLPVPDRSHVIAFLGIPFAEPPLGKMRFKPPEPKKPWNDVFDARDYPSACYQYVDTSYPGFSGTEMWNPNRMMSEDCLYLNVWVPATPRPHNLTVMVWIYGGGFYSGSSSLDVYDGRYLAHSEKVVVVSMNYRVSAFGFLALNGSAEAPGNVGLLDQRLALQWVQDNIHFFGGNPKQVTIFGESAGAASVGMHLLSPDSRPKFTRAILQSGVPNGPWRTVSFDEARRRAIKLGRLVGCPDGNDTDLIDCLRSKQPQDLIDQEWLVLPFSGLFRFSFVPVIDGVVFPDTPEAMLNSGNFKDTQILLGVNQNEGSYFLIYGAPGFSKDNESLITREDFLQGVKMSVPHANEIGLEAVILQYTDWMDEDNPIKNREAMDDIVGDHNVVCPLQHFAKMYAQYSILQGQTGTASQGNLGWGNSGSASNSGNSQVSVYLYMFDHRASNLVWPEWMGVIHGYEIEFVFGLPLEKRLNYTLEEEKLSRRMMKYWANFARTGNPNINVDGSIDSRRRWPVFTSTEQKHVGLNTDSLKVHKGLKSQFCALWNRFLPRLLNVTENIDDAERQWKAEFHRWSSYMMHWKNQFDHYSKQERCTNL
Sequence of Cholinesterase (P81908 whole entry): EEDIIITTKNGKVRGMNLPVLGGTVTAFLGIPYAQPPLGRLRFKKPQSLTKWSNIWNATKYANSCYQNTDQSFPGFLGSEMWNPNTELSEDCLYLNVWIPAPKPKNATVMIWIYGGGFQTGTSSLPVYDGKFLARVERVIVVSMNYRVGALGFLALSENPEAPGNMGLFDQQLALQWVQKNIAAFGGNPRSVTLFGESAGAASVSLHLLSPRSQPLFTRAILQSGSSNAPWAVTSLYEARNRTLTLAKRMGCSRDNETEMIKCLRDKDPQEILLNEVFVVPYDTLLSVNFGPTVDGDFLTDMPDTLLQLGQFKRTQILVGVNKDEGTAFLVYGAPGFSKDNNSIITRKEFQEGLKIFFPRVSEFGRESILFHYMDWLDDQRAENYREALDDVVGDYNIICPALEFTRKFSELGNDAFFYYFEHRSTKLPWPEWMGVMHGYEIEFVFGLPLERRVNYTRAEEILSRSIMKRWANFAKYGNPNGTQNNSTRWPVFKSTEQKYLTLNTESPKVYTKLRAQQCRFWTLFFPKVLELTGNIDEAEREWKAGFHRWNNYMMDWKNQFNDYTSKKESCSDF
Sequence of Acetylcholinesterase (Electrophorus electricus) (O42275 24-633 limits assumed): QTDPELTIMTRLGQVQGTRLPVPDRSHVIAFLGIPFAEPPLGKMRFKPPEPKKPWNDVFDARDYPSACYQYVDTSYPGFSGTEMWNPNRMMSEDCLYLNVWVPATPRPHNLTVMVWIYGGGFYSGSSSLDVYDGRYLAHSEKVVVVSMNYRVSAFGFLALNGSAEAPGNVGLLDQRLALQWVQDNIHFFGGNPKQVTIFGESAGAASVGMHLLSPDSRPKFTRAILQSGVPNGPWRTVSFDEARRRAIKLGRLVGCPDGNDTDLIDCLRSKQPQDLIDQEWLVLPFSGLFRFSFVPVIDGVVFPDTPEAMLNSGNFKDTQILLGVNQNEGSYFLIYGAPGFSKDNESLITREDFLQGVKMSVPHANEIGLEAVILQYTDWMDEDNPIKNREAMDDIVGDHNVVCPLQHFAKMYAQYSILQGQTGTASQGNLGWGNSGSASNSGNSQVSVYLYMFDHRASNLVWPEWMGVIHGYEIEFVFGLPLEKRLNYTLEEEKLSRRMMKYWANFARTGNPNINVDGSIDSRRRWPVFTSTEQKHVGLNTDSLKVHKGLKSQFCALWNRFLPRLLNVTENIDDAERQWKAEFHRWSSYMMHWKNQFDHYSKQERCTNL
Sequence of Cholinesterase (Equus caballus) (P81908 whole entry): as the sequence (P81908 whole entry) above

With `CCOc1ccc(NCc2ccccc2)cc1`, the inhibition result in experiment [1] was “Active”. Moreover, the IC50 in experiment [2] and in experiment [3] was greater than 100 µM in each case.
Turning to `Cc1ccc(CNc2ccc(F)cc2)cc1`, the inhibition result in experiment [1] was “Active”. Besides, the IC50 in experiment [2] and in experiment [3] was greater than 100 µM in each case.
For `Cc1ccc(CNc2ccc(I)cc2)cc1`, the inhibition entry in experiment [1] was “Active”. In addition, the IC50 in experiment [2] and in experiment [3] was greater than 100 µM in each case.
In the case of `Clc1ccc(NCc2ccccc2)cc1`, the inhibition result in experiment [1] was “Active”. The 50% inhibitory concentration (IC50) in experiment [2] and in experiment [3] was greater than 100 µM each time.
On to `CCOc1ccc(NCc2ccc(C)cc2)cc1`, for which the inhibition entry in experiment [1] was “Active”. The IC50 was greater than 100 µM in experiment [2] and 4.07 µM in experiment [3].
Regarding `O=C(/C=C/C(=O)N(Cc1ccccc1)c1ccc(Cl)cc1)N(Cc1ccccc1)c1ccc(Cl)cc1`, in experiment [1], the inhibition entry was “Active”. In addition, the 50% inhibitory concentration (IC50) in experiment [2] is 2.53 µM; in experiment [3], 57.7 µM.
As for `CCc1ccc(NCc2ccc(C)cc2)cc1`, in experiment [1], the inhibition result is “Active”. Besides, the half-inhibitory concentration (IC50) in experiment [2] and in experiment [3] was greater than 100 µM each time.
Regarding `COc1ccc(N(Cc2ccccc2)C(=O)/C=C/C(=O)N(Cc2ccccc2)c2ccc(OC)cc2)cc1`, the inhibition entry in experiment [1] is “Active”. Further, the results for the IC50 in experiment [2] and in experiment [3] were 13.9 µM and 43.6 µM, respectively.
Consider `Cc1ccc(CNc2ccc(C)cc2)cc1`, for which, in experiment [1], the inhibition entry was “Active”. For the same compound, the IC50 in experiment [2] and in experiment [3] was greater than 100 µM in each case.
Turning to `CCc1ccc(N(Cc2ccc(C)cc2)C(=O)/C=C/C(=O)N(Cc2ccc(C)cc2)c2ccc(CC)cc2)cc1`, the inhibition entry in experiment [1] was “Active”. For the same compound, the values for the 50% inhibitory concentration (IC50) in experiment [2] and in experiment [3] were 29.4 µM and 44.7 µM, respectively.
For the compound `Ic1ccc(NCc2ccccc2)cc1`, in experiment [1], the inhibition entry is “Active”. Further, the half-inhibitory concentration (IC50) in experiment [2] and in experiment [3] was greater than 100 µM in each case.
Regarding `Cc1ccc(N(Cc2ccccc2)C(=O)/C=C/C(=O)N(Cc2ccccc2)c2ccc(C)cc2)cc1`, the inhibition result in experiment [1] is “Active”. In addition, the IC50 in experiment [2] is 12.5 µM; in experiment [3], 26.3 µM.
For `Cc1ccc(NCc2ccccc2)cc1` [N-BENZYL-4-METHYLANILINE], the inhibition result in experiment [1] is “Active”. The IC50 in experiment [2] and in experiment [3] was greater than 100 µM each time.
`Cc1ccc(CNc2ccc(Br)cc2)cc1`: the inhibition entry in experiment [1] is “Active”. Besides, the IC50 in experiment [2] and in experiment [3] was greater than 100 µM throughout.
As to `Cc1ccc(CN(C(=O)/C=C/C(=O)N(Cc2ccc(C)cc2)c2ccc(C)cc2)c2ccc(C)cc2)cc1`, the inhibition entry in experiment [1] is “Active”. The concentration for half-maximal inhibition (IC50) in experiment [2] stood at 43.1 µM; in experiment [3], 54.8 µM.
In the same order, the values of `Fc1ccc(NCc2ccccc2)cc1` are “Active”, greater than 100 µM and greater than 100 µM.
In the same order, the values of `O=C(/C=C/C(=O)N(Cc1ccccc1)c1ccccc1)N(Cc1ccccc1)c1ccccc1` are “Active”, 11.8 µM and 52.4 µM.
`CCc1ccc(NCc2ccccc2)cc1`: in experiment [1], the inhibition result is “Active”. Further, the IC50 in experiment [2] and in experiment [3] was greater than 100 µM throughout.
Regarding `CCOc1ccc(N(Cc2ccc(C)cc2)C(=O)/C=C/C(=O)N(Cc2ccc(C)cc2)c2ccc(OCC)cc2)cc1`, the inhibition result in experiment [1] was “Active”. Also, the IC50 in experiment [2] was 2.23 µM; in experiment [3], greater than 100 µM.
Take `Cc1ccc(CN(C(=O)/C=C/C(=O)N(Cc2ccc(C)cc2)c2ccc(Br)cc2)c2ccc(Br)cc2)cc1`: the inhibition result in experiment [1], in experiment [4] and in experiment [5] was “Active” each time. Further, the IC50 in experiment [2] was 0.14 µM; in experiment [3], 23.1 µM.
As for `O=C(/C=C/C(=O)N(Cc1ccccc1)c1ccc(Br)cc1)N(Cc1ccccc1)c1ccc(Br)cc1`, the inhibition entry in experiment [1], in experiment [4] and in experiment [5] was “Active” in each case. In addition, the values for the IC50 in experiment [2] and in experiment [3] were 8.06 µM and 16.5 µM, respectively.
On to `Cc1ccc(CN(C(=O)/C=C/C(=O)N(Cc2ccc(C)cc2)c2ccc(I)cc2)c2ccc(I)cc2)cc1`, for which the inhibition entry in experiment [1] is “Active”. The IC50 in experiment [2] came out at 17.7 µM; in experiment [3], 24.6 µM.
Regarding `O=C(/C=C/C(=O)N(Cc1ccccc1)c1ccc(I)cc1)N(Cc1ccccc1)c1ccc(I)cc1`, the inhibition result in experiment [1] was “Active”. The concentration for half-maximal inhibition (IC50) came out at 0.97 µM in experiment [2] and 23.3 µM in experiment [3].
For `CCc1ccc(N(Cc2ccccc2)C(=O)/C=C/C(=O)N(Cc2ccccc2)c2ccc(CC)cc2)cc1`, the inhibition entry in experiment [1] was “Active”. For the same compound, the 50% inhibitory concentration (IC50) was determined as 32.2 µM in experiment [2] and 49.3 µM in experiment [3].
On the same counts, the results for `COc1ccc(NCc2ccc(C)cc2)cc1` are “Active”, 1.33 µM and greater than 100 µM.
On the same counts, the results for `O=C(/C=C/C(=O)N(Cc1ccccc1)c1ccc(F)cc1)N(Cc1ccccc1)c1ccc(F)cc1` are “Active”, 4.5 µM and 89.5 µM.
In the same order, the values of `Brc1ccc(NCc2ccccc2)cc1` are “Active”, greater than 100 µM and greater than 100 µM.
Regarding `c1ccc(CNc2ccccc2)cc1` [N-BENZYLANILINE], the inhibition entry in experiment [1] is “Active”. For the same compound, the half-maximal inhibitory concentration (IC50) was 13 µM in experiment [2] and greater than 100 µM in experiment [3].
For `Cc1ccc(CNc2ccc(Cl)cc2)cc1`, the inhibition result in experiment [1] was “Active”. Besides, the IC50 in experiment [2] and in experiment [3] was greater than 100 µM throughout.
For `CCOc1ccc(N(Cc2ccccc2)C(=O)/C=C/C(=O)N(Cc2ccccc2)c2ccc(OCC)cc2)cc1`, the inhibition result in experiment [1] was “Active”. In addition, the results for the IC50 in experiment [2] and in experiment [3] were 35.9 µM and 44 µM, respectively.
In the same order, the values of `Cc1ccc(CN(C(=O)/C=C/C(=O)N(Cc2ccc(C)cc2)c2ccc(F)cc2)c2ccc(F)cc2)cc1` are “Active”, 23.9 µM and 56.6 µM.
Consider `COc1ccc(N(Cc2ccc(C)cc2)C(=O)/C=C/C(=O)N(Cc2ccc(C)cc2)c2ccc(OC)cc2)cc1`, for which, in experiment [1], the inhibition result is “Active”. Besides, the IC50 in experiment [2] is 11.2 µM; in experiment [3] it was 41 µM.
In the same order, the values of `Cc1ccc(CN(C(=O)/C=C/C(=O)N(Cc2ccc(C)cc2)c2ccc(Cl)cc2)c2ccc(Cl)cc2)cc1` are “Active”, 2.42 µM and 45.6 µM.

In general, IC50 refers to the midpoint of a concentration-inhibition curve.
